Key:
guinea pig atria = assay: isolated guinea pig atria and papillary muscle procedure: right atrial force; format: cell-based; settings: Cavia porcellus, read-out: % Change from Control RAF
Source text: (§1) Detailed descriptions of these test procedures appear in U.S. Patent No. 4,072,746, issued February 7, […].
(§2) Cardiotonic activity in said isolated cat or guinea pig atria and papillary muscle procedure, is indicated by a significant increase, that is, greater than 25% (cat) or 30% (g.pig) in papillary muscle force and a significant increase, that is, greater than 25% (cat) or 30% (g.pig) in right atrial force, with a lower percentage increase (about one-half or less than the percentage increase in right atrial force or papillary muscle force) in right atrial rate. Because of the lower control active tensions of guinea pig tissues, the percent change from control values of both rate and force responses is elevated slightly, i.e., 5%. Thus, whereas cardiotonic activity is ascertained with a papillary muscle force or right atrial force increase of 26% and greater in the cat test, corresponding activity in the guinea pig test is designated with a papillary muscle force (PMr) or right atrial force (RAF) increase of 31% or greater. Representative examples of the compounds of Formulas I and II were tested by said guinea pig atria and papillary muscle procedure with the following results: […]

papillary muscle = assay: isolated guinea pig atria and papillary muscle procedure: papillary muscle force; format: cell-based; settings: Cavia porcellus, papillary muscle force, read-out: % Change from Control PMF
Source text: as §1, §2

anesthetized dog = anesthetized dog procedure: cardiac contractile force; format: in vivo; settings: administered intravenously
Protocol: as §1
When tested by said anesthetized dog procedure, the said cardiotonically active compounds of formulas I and II at doses of from about 0.030 to 3.0 mg/kg administered intravenously are found to cause significant increases, that is, 25% or greater, in cardiac contractile force or cardiac contractility with lower changes in heart rate and blood pressure. Representative examples of the invention were tested by this procedure and found to cause increases in contractile force as follows: […]

Row | SMILES | activation at 1 µg/mL (guinea pig atria) | activation at 3 µg/mL (guinea pig atria) | activation at 10 µg/mL (guinea pig atria) | activation at 1 µg/mL (papillary muscle) | activation at 3 µg/mL (papillary muscle) | activation at 10 µg/mL (papillary muscle) | % Increase In Contractile Force (anesthetized dog; dose 0.100 mg/kg) | % Increase In Contractile Force (anesthetized dog; dose 0.300 mg/kg) | % Increase In Contractile Force (anesthetized dog; dose 1.00 mg/kg) | activation at 30 µg/mL (guinea pig atria) | activation at 100 µg/mL (guinea pig atria) | activation at 30 µg/mL (papillary muscle) | activation at 100 µg/mL (papillary muscle) | % Increase In Contractile Force (anesthetized dog; dose 3.00 mg/kg) | activation at 0.3 µg/mL (guinea pig atria; dose 0.3 µg/ml) | activation at 0.3 µg/mL (papillary muscle; dose 0.3 µg/ml) | % Increase In Contractile Force (anesthetized dog; dose 0.030 mg/kg)
1 | Cc1cn(-c2nc(C)cc3[nH]c(=O)ccc23)cn1 [Example 47, 7-Methyl-5-(4-methyl-1H-imidazol-1-yl)-1,6-naphthyridin-2(lH)-one] | 37% | 46% | 158% | 46% | 48% | 164% | 71% | 125% | 183% | – | – | – | – | – | – | – | –
2 | Cc1nccn1-c1nccc2[nH]c(=O)ccc12 [Example 8, 5-(2-Methyl-1H-imidazol-1-yl)-1,6-naphthyridin-2(lH)-one] | – | – | 39% | – | – | 34% | – | – | – | 117% | 221% | 69% | 100% | – | – | – | –
3 | Cc1ccn(-c2nccc3[nH]c(=O)ccc23)n1 [Example 40, 5-(3-Methyl-1H-pyrazol-1-yl)-1,6-naphthyridin-2(lH)-one] | – | 26% | 89% | – | 24% | 64% | – | – | – | 84% | – | 97% | – | – | – | – | –
4 | Cc1ncn(-c2nccc3[nH]c(=O)ccc23)n1 [Example 41, 5-(3-methyl-lH-1,2,4-triazole-1-yl)-1,6-naphthyridin-2(1H)-one] | 29% | 37% | 67% | 36% | 56% | 124% | – | – | – | – | – | – | – | – | – | – | –
5 | O=c1ccc2c(-n3cnc(CO)c3)nccc2[nH]1 [Example 42, 5-[4-(Hydroxymethyl)-1H-imidazol-1-yl]-1,6-naphthyridin-2(lH)-one] | -2% | 8% | 37% | 9% | 48% | 112% | – | – | – | – | – | – | – | – | – | – | –
6 | Cc1ncn(-c2nccc3[nH]c(=O)ccc23)c1C [Example 12, 5-(4,5-dimethyl-1H-imidazol-1-yl)-1,6-naphthyridin-2(1H)-one] | – | 7% | 14% | – | 13% | 49% | – | – | 54% | 50% | – | 92% | – | 136% | – | – | –
7 | O=c1ccc2c(-n3cnc(-c4ccccc4)c3)nccc2[nH]1 [Example 13, 5-(4-phenyl-lH-imidazol-1-yl)-1,6-naphthyridin-2(1H)-one] | – | – | 33% | – | – | 25% | – | – | 40% | 24% | 1% | 34% | 36% | 87% | – | – | –
8 | Cc1ncc([N+](=O)[O-])n1-c1nccc2[nH]c(=O)ccc12 [Example 9, 5-(2-methyl-5-nitro-1H-imidazol-1-yl)-1,6-naphthyridin-2(1H)-one] | – | – | 15% | – | – | 24% | – | – | – | 16% | 116% | 43% | 103% | – | – | – | –
9 | O=c1ccc2c(-n3cnc(Br)c3)nccc2[nH]1 [Example 43, 5-(4-Bromo-1H-imidazol-1-yl)-1,6-naphthyridin-2(lH)-one] | 35% | 43% | 56% | 47% | 71% | 128% | – | – | – | – | – | – | – | – | – | – | –
10 | O=c1ccc2c(-n3cncn3)nccc2[nH]1 [Example 11, 5-(lH-1,2,4-triazol-1-yl)-1,6-naphthyridin-2(1H)-one] | – | 28% | 31% | – | 51% | 76% | – | – | – | 140% | – | 108% | – | – | – | – | –
11 | O=c1ccc2c(-n3ccnc3)nccc2[nH]1 [Example 6, 5-(lH-imidazol-1-yl)-1,6-naphthyridin-2(lH)-one] | – | 70% | 68% | – | 55% | 90% | – | – | – | 142% | – | 96% | – | – | – | – | –
12 | O=c1ccc2c(-n3cnc([N+](=O)[O-])c3)nccc2[nH]1 [Example 48, 5-(4-nitro-1H-imidazol-1-yl)-1,6-naphthyridin-2(1H)-one] | – | – | 18% | – | – | 37% | – | – | – | 42% | 170% | 71% | 107% | – | – | – | –
13 | O=c1ccc2c(Br)nccc2[nH]1 [Example 4, 5-bromo-1,6-naphthyridin-2(1H)-one] | – | 57% | 49% | – | 73% | 85% | 135% | – | – | 134% | – | 110% | – | – | – | – | –
14 | O=c1ccc2c(-n3cccn3)nccc2[nH]1 [Example 10, 5-(1H-pyrazol-1-yl)-1,6-naphthyridin-2(1H)-one] | – | – | 38% | – | – | 43% | – | – | – | 102% | 168% | 121% | 203% | – | – | – | –
15 | Cc1cn(-c2nccc3[nH]c(=O)ccc23)cn1 [Example 7, 5-(4-Methyl-1H-imidazol-1-yl)-1,6-naphthyridin-2(1H)-one] | 49% | 88% | – | 66% | 87% | – | 96% | 124% | – | – | – | – | – | – | 28% | 53% | 34%
16 | O=c1ccc2c(-n3cnc(C(F)(F)F)c3)nccc2[nH]1 [Example 44, 5-[(4-(Trifluoromethyl)-lH-imidazol-1-yl)]-1,6-naphthyridin-2(lH)-one] | – | – | 35% | – | – | 30% | – | – | – | 36% | 101% | 31% | 69% | – | – | – | –
17 | Cc1cc2[nH]c(=O)ccc2c(Br)n1 [Example 46, 5-Bromo-7-methyl-1,6-naphthyridin-2(1H)-one] | 41% | 92% | 59% | 44% | 67% | 114% | – | – | – | – | – | – | – | – | – | – | –

From patent EP0189853A2, “1,6-Naphthyridin-2(1H)-ones having cardiotonic activity and preparation” (STERLING DRUG INC., priority 1985, dated 1986)
